19 compounds from patent US20220089575A1, “FARNESOID X RECEPTOR AGONISTS AND USES THEREOF” (Metacrine, Inc., priority 2017, published 2022) can be followed below.

This test deals with T1, hFXR (Homo sapiens, UniProt Q96RI1).
T1 construct: expressed in transfected cells; host or cells: CV-1 cells
T1 sequence (Q96RI1 1-486): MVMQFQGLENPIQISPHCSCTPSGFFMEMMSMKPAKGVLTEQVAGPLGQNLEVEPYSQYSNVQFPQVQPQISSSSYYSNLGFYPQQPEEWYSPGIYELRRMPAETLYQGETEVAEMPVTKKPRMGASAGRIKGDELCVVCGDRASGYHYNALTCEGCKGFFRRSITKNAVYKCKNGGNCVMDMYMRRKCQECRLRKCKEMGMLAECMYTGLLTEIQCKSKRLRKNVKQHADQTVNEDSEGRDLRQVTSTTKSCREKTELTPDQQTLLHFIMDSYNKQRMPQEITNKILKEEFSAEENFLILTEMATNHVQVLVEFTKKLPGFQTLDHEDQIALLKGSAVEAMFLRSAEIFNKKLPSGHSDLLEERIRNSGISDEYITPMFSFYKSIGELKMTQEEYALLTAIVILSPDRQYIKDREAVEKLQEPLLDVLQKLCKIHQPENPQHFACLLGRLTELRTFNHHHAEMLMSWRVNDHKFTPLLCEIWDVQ
T1 sequence (P19793 1-462 partner): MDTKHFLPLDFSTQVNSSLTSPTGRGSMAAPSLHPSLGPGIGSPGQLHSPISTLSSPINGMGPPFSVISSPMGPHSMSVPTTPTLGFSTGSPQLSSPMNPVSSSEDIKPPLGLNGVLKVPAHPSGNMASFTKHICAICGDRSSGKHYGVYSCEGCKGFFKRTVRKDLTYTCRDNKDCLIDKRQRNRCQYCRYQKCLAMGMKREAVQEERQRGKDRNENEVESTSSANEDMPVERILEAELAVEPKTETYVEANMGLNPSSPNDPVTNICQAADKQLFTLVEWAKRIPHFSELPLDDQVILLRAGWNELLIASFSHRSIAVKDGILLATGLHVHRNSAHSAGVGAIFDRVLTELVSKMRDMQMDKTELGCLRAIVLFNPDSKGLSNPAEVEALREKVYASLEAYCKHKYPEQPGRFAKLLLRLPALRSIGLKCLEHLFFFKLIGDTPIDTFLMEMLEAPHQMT
The test can be described thus: In Vitro FXR Assay (TK): TK-ECRE-luc reporter in transfected CV-1 cells. The test is classed as cell-based. As to conditions: 18 hrs, luminescence, maximum efficacy of <25% of the Fexarmine control classified as '+'. In outline: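 CV-1, transient co-transfection: hFXR + hRXR + TK-ECRE-luc + pCMX-YFP; charcoal-stripped serum. 18 h post-transfection, DMSO serial dilutions of cpd added; 18 h incubation; lysis, luminescence.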

Consider `CNC(=O)O[C@H]1CC[C@H](C(=O)N(C[C@H]2CC[C@H](c3ccc(OC)c(C#N)c3)CC2)c2cc(-c3cnn(C4CC4)c3)ccn2)CC1` [Compound 5.17, trans-4-(((trans-4-(3-Cyano-4-methoxyphenyl)cyclohexyl)methyl)(4-(1-cyclopropyl-1H-pyrazol-4-yl)pyridin-2-yl)carbamoyl)cyclohexyl methylcarbamate], for which the half-maximal effective concentration (EC50) (commonly the midpoint of the concentration-response curve) is at most 250 nM.
`COc1ccc([C@H]2CC[C@H](CN(c3cc(-c4cnn(C(C)C)c4)ccn3)C(=O)[C@H]3CC[C@H](CC(=O)O)CC3)CC2)cc1C#N` [Compound 17.26, 2-(trans-4-(((trans-4-(3-Cyano-4-methoxyphenyl)cyclohexyl)methyl)(4-(1-isopropyl-1H-pyrazol-4-yl)pyridin-2-yl)carbamoyl)cyclohexyl)acetic acid] registered an EC50 of at most 250 nM.
Regarding `COc1ccc([C@H]2CC[C@H](CN(c3cccc(-c4cnn(C5CC5)c4)c3)C(=O)[C@H]3CC[C@H](OC(=O)N4CC(N)C4)CC3)CC2)cc1C` [Compound 7.39, trans-4-((3-(1-Cyclopropyl-1H-pyrazol-4-yl)phenyl)((trans-4-(4-methoxy-3-methylphenyl)cyclohexyl)methyl)carbamoyl)cyclohexyl 3-aminoazetidine-1-carboxylate], the EC50 was at most 250 nM.
For the compound `CNC(=O)O[C@H]1CC[C@H](C(=O)N(C[C@H]2CC[C@H](c3ccc(OC)c(C)c3)CC2)c2cccc(-c3cnc(C4CC4)s3)c2)CC1` [Compound 1.01, trans-4-((3-(2-Cyclopropylthiazol-5-yl)phenyl)((trans-4-(4-methoxy-3-methylphenyl)cyclohexyl)methyl)carbamoyl)cyclohexyl methylcarbamate], the EC50 is at most 250 nM.
With `COc1ccc([C@H]2CC[C@H](CN(c3cccc(-c4cnn(C5CC5)c4)c3)C(=O)[C@H]3CC[C@H](OC(=O)NCCN(C)C(=O)OC(C)(C)C)CC3)CC2)cc1C` [Compound 4.14, tert-Butyl (2-((((trans-4-((3-(1-cyclopropyl-1H-pyrazol-4-yl)phenyl)((trans-4-(4-methoxy-3-methylphenyl)cyclohexyl)methyl)carbamoyl)cyclohexyl)oxy)carbonyl)amino)ethyl)(methyl)carbamate] the figure was at most 250 nM; with `COc1ccc([C@H]2CC[C@H](CN(c3cccc(-c4cnn(C5CC5)c4)c3)C(=O)[C@H]3CC[C@H](NC(=O)[C@H]4CC[C@H](O)CC4)CC3)CC2)cc1C` [Compound 26.06, trans-N-(3-(1-Cyclopropyl-1H-pyrazol-4-yl)phenyl)-4-(trans-4-hydroxycyclohexanecarboxamido)-N-((trans-4-(4-methoxy-3-methylphenyl)cyclohexyl)methyl) cyclohexanecarboxamide], at most 250 nM; with `COc1ccc([C@H]2CC[C@H](CN(c3cccc(-c4coc(C5CC5)n4)c3)C(=O)[C@H]3CC[C@H](OC(=O)NCCO)CC3)CC2)cc1C` [Compound 6.46, trans-4-((3-(2-Cyclopropyloxazol-4-yl)phenyl)((trans-4-(4-methoxy-3-methylphenyl)cyclohexyl)methyl)carbamoyl)cyclohexyl (2-hydroxyethyl) carbamate], at most 250 nM.
For the compound `COc1ccc([C@H]2CC[C@H](CN(c3cc(-c4coc(C5CC5)n4)ccn3)C(=O)[C@H]3CC[C@H](OC(=O)NC4COC4)CC3)CC2)nc1C` [Compound 6.60, trans-4-((4-(2-Cyclopropyloxazol-4-yl)pyridine-2-yl)((trans-4-(5-methoxy-6-methylpyridin-2-yl)cyclohexyl)methyl)carbamoyl)cyclohexyl oxetan-3-ylcarbamate], the EC50 is at most 250 nM.
`COc1ccc([C@H]2CC[C@H](CN(c3cccc(-c4cnc(C5CC5)s4)c3)C(=O)[C@H]3CC[C@H](OC(=O)NCCO)CC3)CC2)nc1C` [Compound 6.07, trans-4-((3-(2-Cyclopropylthiazol-5-yl)phenyl)((trans-4-(5-methoxy-6-methylpyridin-2-yl)cyclohexyl)methyl)carbamoyl)cyclohexyl (2-hydroxyethyl)carbamate] displayed an EC50 of at most 250 nM.
With `COc1ccc([C@H]2CC[C@H](CN(c3cc(-c4coc(C(C)C)n4)ccn3)C(=O)[C@H]3CC[C@H](OC(=O)N4CC(OC(C)C)C4)CC3)CC2)nc1C` [Compound 7.83, trans-4-((4-(2-Isopropyloxazol-4-yl)pyridin-2-yl)((trans-4-(5-methoxy-6-methylpyridin-2-yl)cyclohexyl)methyl)carbamoyl)cyclohexyl 3-isopropoxyazetidine-1-carboxylate], the EC50 was at most 250 nM.
Take `CNC(=O)O[C@H]1CC[C@H](C(=O)N(CC23CCC(c4ccc(OC)c(C)c4)(CC2)CC3)c2cccc(-c3cnn(C4CC4)c3)c2)CC1` [Compound 1.05, 4-((3-(1-Cyclopropyl-1H-pyrazol-4-yl)phenyl)((4-(4-methoxy-3-methylphenyl)bicyclo[2.2.2]octan-1-yl)methyl)carbamoyl)cyclohexyl trans-methylcarbamate]: the concentration giving a half-maximal response (EC50) is at most 250 nM.
`COCCO[C@H]1CC[C@H](C(=O)N(C[C@H]2CC[C@H](c3ccc(OC)c(C)c3)CC2)c2cccc(-c3cnc(OC)s3)c2)CC1` [Compound 13.01, trans-N-((trans-4-(4-Methoxy-3-methylphenyl)cyclohexyl)methyl)-4-(2-methoxyethoxy)-N-(3-(2-methoxythiazol-5-yl)phenyl) cyclohexanecarboxamide] returned a concentration giving a half-maximal response (EC50) of at most 250 nM.
Take `COc1ccc([C@H]2CC[C@H](CN(c3cc(-c4coc(C5CC5)n4)ccn3)C(=O)[C@H]3CC[C@H](OC(=O)N4CC(OCCO)C4)CC3)CC2)nc1C` [Compound 6.76, trans-4-((4-(2-Cyclopropyloxazol-4-yl)pyridine-2-yl)((trans-4-(5-methoxy-6-methylpyridin-2-yl)cyclohexyl)methyl)carbamoyl)cyclohexyl 3-(2-hydroxyethoxy)azetidine-1-carboxylate]: the EC50 is at most 250 nM.
With `COc1ccc([C@H]2CC[C@H](CN(c3cccc(-c4cnn(C5CC5)c4)c3)C(=O)[C@H]3CC[C@H](OC(=O)NC4COC4)CC3)CC2)cc1C` [Compound 6.24, trans-4-((3-(1-Cyclopropyl-1H-pyrazol-4-yl)phenyl)((trans-4-(4-methoxy-3-methylphenyl)cyclohexyl)methyl)carbamoyl)cyclohexyl oxetan-3-ylcarbamate] the figure was at most 250 nM; with `CCC(O)C(C)NC(=O)O[C@H]1CC[C@H](C(=O)N(C[C@H]2CC[C@H](c3ccc(OC)c(C)n3)CC2)c2cc(-c3coc(C4CC4)n3)ccn2)CC1` (stereo partly drawn) [Compound 6.88, trans-4-((4-(2-Cyclopropyloxazol-4-yl)pyridin-2-yl)((trans-4-(5-methoxy-6-methylpyridin-2-yl)cyclohexyl)methyl)carbamoyl)cyclohexyl (3-hydroxypentan-2-yl)carbamate], at most 250 nM.
With `COc1ccc([C@H]2CC[C@H](CN(c3cc(-c4coc(C5CC5)n4)ccn3)C(=O)[C@H]3CC[C@H](OC(=O)N(C)CCO)CC3)CC2)nc1C` [Compound 6.87, trans-4-((4-(2-Cyclopropyloxazol-4-yl)pyridin-2-yl)((trans-4-(5-methoxy-6-methylpyridin-2-yl)cyclohexyl)methyl)carbamoyl)cyclohexyl (2-hydroxyethyl)(methyl)carbamate] the figure was at most 250 nM.
With `COC(=O)CC1CN(C(=O)O[C@H]2CC[C@H](C(=O)N(C[C@H]3CC[C@H](c4ccc(OC)c(C)n4)CC3)c3cc(-c4coc(C5CC5)n4)ccn3)CC2)C1` [Compound 7.85, trans-4-((4-(2-Cyclopropyloxazol-4-yl)pyridine-2-yl)((trans-4-(5-methoxy-6-methylpyridin-2-yl)cyclohexyl)methyl)carbamoyl)cyclohexyl 3-(2-methoxy-2-oxoethyl)azetidine-1-carboxylate], the half-maximal effective concentration (EC50) was at most 250 nM.
The compound `COC(=O)N[C@H]1CC[C@H](C(=O)N(C[C@H]2CC[C@H](c3ccc(OC)c(C)c3)CC2)c2cccc(-c3cnc(C4CC4)s3)c2)CC1` [Compound 25, Methyl (trans-4-((3-(2-cyclopropylthiazol-5-yl)phenyl)((trans-4-(4-methoxy-3-methylphenyl)cyclohexyl)methyl)carbamoyl)cyclohexyl)carbamate] returned a half-maximal effective concentration (EC50) of at most 250 nM.
`COc1ccc([C@H]2CC[C@H](CN(c3cc(-c4cnc(C(C)C)s4)ccn3)C(=O)[C@H]3CC[C@H](OC(=O)NCCO)CC3)CC2)cc1C` [Compound 6.03, trans-4-((4-(2-Isopropylthiazol-5-yl)pyridin-2-yl)((trans-4-(4-methoxy-3-methylphenyl)cyclohexyl)methyl)carbamoyl)cyclohexyl (2-hydroxyethyl) carbamate] returned an EC50 of at most 250 nM.
